# No end group written: not given here.
# Key:
# protease K [1] = biological target: T1, protease K (Parengyodontium album, UniProt P06873); experiment: in vitro; conditions: isolated enzyme
# protease K [2] = biological target: T1, protease K
# BALB/c mice = conditions: mouse, in vivo, sc
# T1 sequence (P06873 106-384 limits assumed): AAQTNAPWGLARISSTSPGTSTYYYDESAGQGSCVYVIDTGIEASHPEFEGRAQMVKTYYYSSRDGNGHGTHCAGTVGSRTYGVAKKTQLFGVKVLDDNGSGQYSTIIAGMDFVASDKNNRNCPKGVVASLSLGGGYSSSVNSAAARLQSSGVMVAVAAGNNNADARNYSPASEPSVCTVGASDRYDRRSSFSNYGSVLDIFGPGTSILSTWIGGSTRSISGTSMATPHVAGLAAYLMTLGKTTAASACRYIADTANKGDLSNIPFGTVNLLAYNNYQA
substance,measurement,setting,value
SEFMRNALEEMLRRA-NH2 [RSIpep],half-life,protease K [1],37.2 ± 1.8 min
same,t1/2 with protease K,protease K [2],less than 1 h
same,"pathological section analysis of heart, liver, spleen, lung, kidney",BALB/c mice,no discernible pathological alterations

# From article PMC11321638 (Advanced Science, 2024)
